Measurements taken from the NIST ThermoML archive (doi:10.1021/je9006019).
“And” between values parts separate entries of the source, which are not always exact repeats. Identical values can stand only once. Numbers after ± are expanded uncertainties.

Test: mn = molality of the nth substance listed, in mol/kg
Details: 101 kPa, Liquid; for viscosity: Capillary tube (Ostwald / Ubbelohde) method; for electrical conductivity: DIgital conductivity meter (306) of Systronics; for speed of sound: Pulse-echo method

CCCCCCCCCCCCOS(=O)(=O)[O-].[Na+] [sodium dodecyl sulfate] + O
viscosity (298.15 K, m1 = 0.05): 0.986 ± 0.01 mPa·s
viscosity (298.15 K, m1 = 0.1): 1.133 ± 0.012 mPa·s
electrical conductivity (298.15 K, m1 = 0.05): 1 ± 0.6 S/m
electrical conductivity (298.15 K, m1 = 0.1): 2.6 ± 0.6 S/m
speed of sound (298.15 K, m1 = 0.001): 1497.2 ± 1 m/s
speed of sound (298.15 K, m1 = 0.003): 1497.5 ± 1 m/s
speed of sound (298.15 K, m1 = 0.005): 1497.8 ± 1 m/s
speed of sound (298.15 K, m1 = 0.007): 1497.9 ± 1 m/s
speed of sound (298.15 K, m1 = 0.008): 1497.9 ± 1 m/s
speed of sound (298.15 K, m1 = 0.01): 1498.1 ± 1 m/s
speed of sound (298.15 K, m1 = 0.02): 1498.2 ± 1 m/s
speed of sound (298.15 K, m1 = 0.03): 1498.4 ± 1 m/s
speed of sound (298.15 K, m1 = 0.05): 1498.3 ± 1.3 m/s and 1498.3 ± 1 m/s
speed of sound (298.15 K, m1 = 0.07): 1498.2 ± 1 m/s
speed of sound (298.15 K, m1 = 0.1): 1498 ± 1.3 m/s
speed of sound (298.15 K, m1 = 0.103): 1498.2 ± 1 m/s
mass density (298.15 K, m1 = 0.05): 999.078 ± 0.43 kg/m3
mass density (298.15 K, m1 = 0.1): 1000.97 ± 0.44 kg/m3
speed of sound (303.15 K, m1 = 0.001): 1509.5 ± 1 m/s
speed of sound (303.15 K, m1 = 0.003): 1509.8 ± 1 m/s
speed of sound (303.15 K, m1 = 0.005): 1510.1 ± 1 m/s
speed of sound (303.15 K, m1 = 0.007): 1510.1 ± 1 m/s
speed of sound (303.15 K, m1 = 0.008): 1510.2 ± 1 m/s
speed of sound (303.15 K, m1 = 0.01): 1510.3 ± 1 m/s
speed of sound (303.15 K, m1 = 0.02): 1510.3 ± 1 m/s
speed of sound (303.15 K, m1 = 0.03): 1510.4 ± 1 m/s
speed of sound (303.15 K, m1 = 0.05): 1510.2 ± 1 m/s
speed of sound (303.15 K, m1 = 0.07): 1509.9 ± 1 m/s
speed of sound (303.15 K, m1 = 0.103): 1509.7 ± 1 m/s
viscosity (308.15 K, m1 = 0.05): 0.79 ± 0.009 mPa·s
viscosity (308.15 K, m1 = 0.1): 0.87 ± 0.01 mPa·s
electrical conductivity (308.15 K, m1 = 0.05): 2.1 ± 0.6 S/m
electrical conductivity (308.15 K, m1 = 0.1): 3.4 ± 0.6 S/m
speed of sound (308.15 K, m1 = 0.001): 1520.1 ± 1 m/s
speed of sound (308.15 K, m1 = 0.003): 1520.4 ± 1 m/s
speed of sound (308.15 K, m1 = 0.005): 1520.6 ± 1 m/s
speed of sound (308.15 K, m1 = 0.007): 1520.7 ± 1 m/s
speed of sound (308.15 K, m1 = 0.008): 1520.7 ± 1 m/s
speed of sound (308.15 K, m1 = 0.01): 1520.8 ± 1 m/s
speed of sound (308.15 K, m1 = 0.02): 1520.8 ± 1 m/s
speed of sound (308.15 K, m1 = 0.03): 1520.7 ± 1 m/s
speed of sound (308.15 K, m1 = 0.05): 1520.3 ± 1 m/s and 1520.2 ± 1.3 m/s
speed of sound (308.15 K, m1 = 0.07): 1519.9 ± 1 m/s
speed of sound (308.15 K, m1 = 0.1): 1519.1 ± 1.3 m/s
speed of sound (308.15 K, m1 = 0.103): 1519.3 ± 1 m/s
mass density (308.15 K, m1 = 0.05): 995.942 ± 0.44 kg/m3
mass density (308.15 K, m1 = 0.1): 997.734 ± 0.44 kg/m3
speed of sound (313.15 K, m1 = 0.001): 1529 ± 1 m/s
speed of sound (313.15 K, m1 = 0.003): 1529.3 ± 1 m/s
speed of sound (313.15 K, m1 = 0.005): 1529.5 ± 1 m/s
speed of sound (313.15 K, m1 = 0.007): 1529.5 ± 1 m/s
speed of sound (313.15 K, m1 = 0.008): 1529.6 ± 1 m/s
speed of sound (313.15 K, m1 = 0.01): 1529.7 ± 1 m/s
speed of sound (313.15 K, m1 = 0.02): 1529.5 ± 1 m/s
speed of sound (313.15 K, m1 = 0.03): 1529.4 ± 1 m/s
speed of sound (313.15 K, m1 = 0.05): 1528.8 ± 1 m/s
speed of sound (313.15 K, m1 = 0.07): 1528.2 ± 1 m/s
speed of sound (313.15 K, m1 = 0.103): 1527.3 ± 1 m/s
